Data on 5 molecules can be found in US20030162765A1, “2-amino-6-(2-substituted-4-phenoxy)-substituted-pyridines” (Pfizer Inc., priority 1997, published 2003).

Counter-ions that a name gives are not always drawn.

One may read the melting point as the temperature of the solid-liquid transition. The molecule `COc1cc(-c2cccc(N)n2)ccc1OCCN(C)C` (as salt: hydrochloride) [Example 6, 6-[4-(2-Dimethylamino-ethoxy)-3-methoxy-phenyl]-pyridin-2-ylamine] gave a melting point of 225 to 228 °C.

As to `COc1cc(-c2cccc(N)n2)ccc1OCCN1CCN(CCc2ccccc2)CC1` (as salt: hydrochloride) [Example 9, 6-{3-methoxy-4-[2-(4-phenethyl-piperazin-1-yl)-ethoxy]-phenyl}-pyridin-2-ylamine], the melting point was in the range of 167 to 182 °C.

On to `CCOc1cc(-c2cccc(N)n2)ccc1OCCN(C)C` (as salt: hydrochloride) [Example 12, 6-[4-(2-Dimethylamino-ethoxy)-3-ethoxy-phenyl]-pyridin-2-ylamine], for which the melting point lay within 210 to 216 °C.

On to `Cc1cc(-c2cccc(N)n2)c(C)cc1OCCN(C)C` (as salt: hydrochloride) [Example 110, 6-[4-(2-dimethylamino-ethoxy)-2,5-dimethyl-phenyl]-pyridin-2-ylamine], for which the melting point was in the range of 205 to 209 °C.

In turn, `Cc1cc(-c2cccc(N)n2)c(C)cc1OCCN1CCN(CCc2ccccc2)CC1` (as salt: hydrochloride) [Example 111, 6-[4-(2-(4-Phenethylpiperazin-1-yl)-ethoxy)-2,5-dimethyl-phenyl]-pyridin-2-ylamine] registered a melting point above 220 °C.
